# Where two headings read alike, the source gives them in different places.
# How the values were obtained:
# Format in all cases: physicochemical
# [1] = Example 5: visible fluorescence under ultraviolet illumination
# Source text: A sample of C14-16 linear alphaolefin was placed under ultraviolet illumination and its visible fluorescence noted. The fluorescence was compared to that of some other known base oils.
# [2] = Kinematic viscosity (KV) of base oils
# Source text: KV: The kinematic viscosity of an oil in centistokes.
# (§1) Some properties of alk-1-enes of carbon number between 12 and 20 are shown in Table 1 (which appears at the end of this description) and compared with an ester oil, a linear alkyl benzene, and a polyalphaolefin.
# Pour point of base oils = test: Pour point of base oils
# Source text: as §1
# Flash point of base oils = test: Flash point of base oils
# Source text: as §1
SMILES,Fluorescence (colour) ([1]; continued lines of the cell),Fluorescence (intensity) ([1]; first printed line of the cell),KV at 40° C. ([2]; 40° C.),KV at 40° C. [2],Pour Point (Pour point of base oils),Flash Point (Flash point of base oils)
CCCCCCCC/C=C\CCCCCCCC(=O)OCC(CC)CCCC (stereo not drawn) [2-ethylhexyl oleate],white,Medium,–,–,–,–
C=CCCCCCCCCCCCCCC [C16],–,–,–,2.62 Cst,+4 °C,–
C=CCCCCCCCCCC [C12],–,–,–,1.29 Cst,-35 °C,77 °C

# Further lines, with some results ahead:
Fluorescence (colour) ([1]; continued lines of the cell),Fluorescence (intensity) ([1]; first printed line of the cell),KV at 40° C. ([2]; 40° C.),SMILES,KV at 40° C. [2],Pour Point (Pour point of base oils),Flash Point (Flash point of base oils)
–,–,1.85 Cst,C=CCCCCCCCCCCCC [C14],–,-13 °C,107 °C
–,–,3.59 Cst,C=CCCCCCCCCCCCCCCCC [C18],–,+18 °C,–

# Source: patent US5627143A, “Wellbore fluid” (Dowell Schlumberger Incorporated, priority 1993, dated 1997)
